US20080255117A1, “SULFONYLTRYPTOPHANOLS” (priority 2007, published 2008)

Target: T1, human FSH receptor (Homo sapiens, UniProt P23945)
T1 construct: expressed in transfected cells; host or cells: CHO cells (hFSHR clone 16)
T1 sequence (P23945 18-695): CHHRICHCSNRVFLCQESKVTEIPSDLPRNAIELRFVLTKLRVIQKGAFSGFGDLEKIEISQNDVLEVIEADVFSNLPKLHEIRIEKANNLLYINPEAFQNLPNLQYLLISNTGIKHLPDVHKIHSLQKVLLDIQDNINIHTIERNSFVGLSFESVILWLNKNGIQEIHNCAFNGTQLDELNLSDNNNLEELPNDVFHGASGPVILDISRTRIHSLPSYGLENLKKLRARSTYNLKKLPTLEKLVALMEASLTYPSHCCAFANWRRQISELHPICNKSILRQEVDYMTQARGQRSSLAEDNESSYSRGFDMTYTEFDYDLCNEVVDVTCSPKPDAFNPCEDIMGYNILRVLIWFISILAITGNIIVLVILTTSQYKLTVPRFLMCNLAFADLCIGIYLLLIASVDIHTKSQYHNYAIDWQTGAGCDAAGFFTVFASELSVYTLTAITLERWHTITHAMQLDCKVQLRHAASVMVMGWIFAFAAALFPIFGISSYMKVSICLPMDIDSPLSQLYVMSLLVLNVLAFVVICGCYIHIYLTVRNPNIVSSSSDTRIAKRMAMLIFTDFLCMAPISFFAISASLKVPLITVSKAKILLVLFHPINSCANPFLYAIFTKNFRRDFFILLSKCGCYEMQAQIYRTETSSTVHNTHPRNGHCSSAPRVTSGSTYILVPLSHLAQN
Test: HTRF assay for measuring cAMP in cells (FSH antagonism)
Assay type: cell-based
Details: FSH antagonistic effect in the HTRF assay; hFSHR clone 16 cells (CHO cells stably transfected with the human FSH receptor); in the presence of 1e-9 mol/l hFSH
Protocol: HTRF Assay for Measuring cAMP in Cells
The method is based on a competitive immunoassay between native cAMP, which has been produced by the cells, and cAMP which is labelled with cAMPD2 conjugate. The tracer binding was visualized by a monoclonal antibody, anti-cAMP labelled with cryptate [HTRF=homogeneous time-resolved fluorescence].
The specific signal is inversely proportional to the cAMP concentration of the samples employed.
The 665 nm/620 nm fluorescence ratio was evaluated.
The following material was used: 96-well plates for the tissue culture, 96-well plates with black edge and black base (e.g. Fluotrac 600 from Greiner), 96-well plates for the substance dilutions of polypropylene and cAMP Femtomolar (4000 wells Kit, CIS Bio International # 62AM5PEJ).
The following reagents were used: BSA (bovine serum albumin) Fraction V protease-free, IBMX (3-isobutyl-1-methylxanthine), hFSH (human follicle stimulating hormone), Triton X-100 analytical grade, potassium fluoride analytical grade, G 418 (Geneticin) and Accutase.
Buffer 1 (washing and testing buffer) contained PBS, 1 mM CaCl2, 1 mM MgCl2, 0.2% glucose; 0.1% BSA, 1 mM IBMX. […]
The values of the well ratio were averaged and then entered directly in SigmaPlot versus the concentrations. The maximum and minimum values were determined for each plate, and half the difference is to be regarded as IC50.

Row | IC50 | Structure (SMILES)
1 | 10 µM | N#CCc1ccc(-c2cc3c(c(S(=O)(=O)N[C@@H](CO)Cc4c[nH]c5ccccc45)c2)OCC3)cc1 [Example 52, 5-(4-Cyanomethyl-phenyl)-2,3-dihydro-benzofuran-7-sulfonic acid [(R)-2-hydroxy-1-(1H-indol-3-ylmethyl)-ethyl]-amide]
2 | 5 µM | O=S(=O)(N[C@@H](CO)Cc1c[nH]c2ccccc12)c1cc(-c2ccc3ncccc3c2)cc2c1OCC2 [Example 39, 5-Quinolin-6-yl-2,3-dihydro-benzofuran-7-sulfonic acid [(R)-2-hydroxy-1-(1H-indol-3-ylmethyl)-ethyl]-amide]
